The results in this text go back to EP3827825A1, “USE OF 3, 4-DIARYLPYRAZOLES AS ANTIBACTERIAL AGENTS” (Wageningen Universiteit, priority 2019, dated 2021).

In brackets after ≈: the same amount, converted by molar mass.

The subject of experiment [1] is M. marinum. Description: Minimal inhibitory concentration (MIC), Middlebrook 7H9 broth, 3 days at 30 °C. Format: cell-based, Mycobacterium marinum. The note with it: unit assumed. As to the method: (§1) In short, a stock solution of 5 mg/mL of HKIs in DMSO was made. This stock was diluted to 50 µg/mL in broth in a 96 well plate. Dilutions were made (factor 2) directly in the plate with a multi-channel pipet. Bacteria cultured in suspension overnight were then added to the plate (except negative control) and the plate was incubated for 24 hours. After 24 hours the OD600 was measured using a spectrophotometer. A positive control (with bacteria, without HKI) was also measured on each plate. The MICs were not determined in duplo/triplicate in the same experiment, however, the MICs of several HKIs were measured in different experiments and no major differences (max. 1x dilution) were found in the MICs between the experiments.
(§2) Bacterial strains used in this study for antibacterial susceptibility testing (Table S2) were propagated using standard microbiological procedures. Minimal inhibitory concentrations (MICs) were determined following a standard double-dilution method (42), 73. MICs were recorded as the lowest concentration of the compound where no visible growth was observed. After plating the dilutions around the MIC or growing them in fresh MH media, minimal bactericidal concentration (MBC) was recorded as the lowest concentration of the compound at which no colonies were formed or no growth was observed, respectively. For M. marinum, MICs were determined in Middlebrook 7H9 broth (Difco) and MICs were determined after 3 days incubation at 30 °C.
(§3) Grow the bacterial colonies to be tested from single colonies on an agar plate in LB broth or suitable bacterial growth medium overnight at 37°C. Prepare a 5 mg/mL stock solution of compounds to be tested in DMSO. One 96-well plate per bacterial strain was prepared. First, put 50 uL of medium to each well. Add 48 µL of medium to all wells in row A. Pipet 2 µL of antimicrobial master stock into the top well (row A). Beware, the antimicrobial concentration will be diluted 2x after adding the bacterial culture. Total volume in each well will be 100 µL. In A11, pipet 2 µL of DMSO. Make a serial dilution from row A to row H, pipetting 50 µL from the previous row into the new one. Mix well by pipetting up and down. Discard the last 50 µL so that there is 50 µl in each well In a clean, new plastic pipetting cup, dilute the overnight bacterial culture 100 times. Add 100 µL of bacterial overnight culture to 9900 µL of medium. Mix the suspension well. Once the serial dilutions are complete for all antimicrobial compounds, add 50 µL of diluted overnight bacterial culture to each well (except column 12). Mix by pipetting or put the plate on the shaker. Per 2 plates, close with parafilm around the edges and place in the incubator overnight. After overnight culturing, measure bacterial growth on the SpectraMax. The lowest concentration where no growth is observed is the MIC. To determine the MIB pipette 5 µL from each well of the 96 well plate where now growth was observed on to an LB agar plate, without antimicrobial. Put the plates in the incubator to grow overnight. The minimal concentration where no growth can be seen on the agar plate is the MBC.

Experiment [2] has as its system S. suis. Description: Minimal inhibitory concentration (MIC), double-dilution in broth, OD600. Type of experiment: cell-based, Streptococcus suis. The following applies: unit assumed. As to the method:
as §1, §2, §3

In experiment [3] the test system is NRK-52E. As to the kind of experiment: Cell toxicity, Alamar blue assay, 24 hours exposure. Type of experiment: cell-based. The note with it: Rattus norvegicus, read-out: IC50 NRK-52E (50 mg/mL stock). The procedure: Toxicity was primarily determined by measuring cytotoxicity with the Alamar blue assay. In short, cells (HEK293, NRK-52E and Caco-2) were plated in 96-well plates and cultured overnight. HKI compounds were diluted to concentrations ranging from 0.39 to 500 µg/mL in serum-free medium and added to the cells.
After exposure, cells were incubated for 24 hours. Experiments were mostly performed by single measurement. […] After 24 hours HKIs were removed from the cells and Alamar blue was added, incubated for 45 minutes and fluorescence was measured on a spectrophotometer. Alamar blue measures the conversion of blue, low fluorescent resazurin into high fluorescent pink resorufin. This conversion can only be made in viable mitochondria in viable cells and therefore this dye provides a measure for cytotoxicity.

For experiment [4], the system named is E. coli JW5503. Type of experiment: cell-based, Escherichia coli. The note with it: unit assumed. The procedure: as §1, §2, §3
In experiment [5] the test system is P. multocida. Description: Minimal inhibitory concentration (MIC), double-dilution in broth, OD600. Type of experiment: cell-based, Pasteurella multocida. The following applies: unit assumed. As to the method: as §1, §2, §3
Experiment [6] has as its system E. faecium Van A. Described as above. Format: cell-based, Enterococcus faecium. The note with it: unit assumed. The procedure: as §1, §2, §3
Experiment [7] concerns S. aureus Newman. Described as above. Type of experiment: cell-based, Staphylococcus aureus Newman. The following applies: unit assumed. As to the method:
In short, a stock solution of 5 mg/mL of HKIs in DMSO was made. This stock was diluted to 50 µg/mL in broth in a 96 well plate. Dilutions were made (factor 2) directly in the plate with a multi-channel pipet. Bacteria cultured in suspension overnight were then added to the plate (except negative control) and the plate was incubated for 24 hours. After 24 hours the OD600 was measured using a spectrophotometer. A positive control (with bacteria, without HKI) was also measured on each plate.
Bacterial strains used in this study for antibacterial susceptibility testing (Table S2) were propagated using standard microbiological procedures. Minimal inhibitory concentrations (MICs) were determined following a standard double-dilution method (42), 73. […] For M. marinum, MICs were determined in Middlebrook 7H9 broth (Difco) and MICs were determined after 3 days incubation at 30 °C.
as §3

For the compound `Cc1[nH]nc(-c2ccc(O)cc2O)c1-c1ccc(Br)cc1` [May-1, 4-[4-(4-bromophenyl)-5-methyl-1∼{H}-pyrazol-3-yl]resorcinol], in experiment [1], the MIC M. marinum turned out to be 50 µg/mL (≈ 145 µM). The compound further returned an MIC S. suis in experiment [2] of 6.25 µg/mL (≈ 18.1 µM). Moreover, the IC50 in experiment [3] was determined as 5.95 µg/mL (≈ 17.2 µM). For the same compound, in experiment [4], the MIC E. coli JW5503 came out at 3.13 µg/mL (≈ 9.07 µM). The compound further gave an MIC P. multocida in experiment [5] of 12.5 µg/mL (≈ 36.2 µM). Moreover, the MIC E. faecium Van A in experiment [6] is 12.5 µg/mL (≈ 36.2 µM). Further, the MIC S. aureus Newman in experiment [7] stood at 12.5 µg/mL (≈ 36.2 µM).

Turning to `COc1ccc(-c2c(C(F)(F)F)n[nH]c2-c2ccc(O)cc2O)cc1OC` [May-2, 4-[4-(3,4-dimethoxyphenyl)-5-(trifluoromethyl)-1∼{H}-pyrazol-3-yl]resorcinol], the MIC M. marinum in experiment [1] was above 50 µg/mL. The MIC S. suis in experiment [2] turned out to be 50 µg/mL (≈ 131 µM). Besides, in experiment [3], the IC50 came out at 13.9 µg/mL (≈ 36.6 µM). This compound displayed an MIC P. multocida in experiment [5] above 50 µg/mL. The MIC E. faecium Van A in experiment [6] was found to be 50 µg/mL (≈ 131 µM). This compound yielded an MIC S. aureus Newman in experiment [7] of 50 µg/mL (≈ 131 µM).

On to `COc1ccc(-c2[nH]nc(C(F)(F)F)c2-c2ccc(OC)c(OC)c2)c(O)c1` [May-5, 2-[4-(3,4-dimethoxyphenyl)-5-(trifluoromethyl)-1∼{H}-pyrazol-3-yl]-5-methoxy-phenol], for which the MIC M. marinum in experiment [1] is above 50 µg/mL. Further, the MIC S. suis in experiment [2] came to 50 µg/mL (≈ 127 µM). The IC50 in experiment [3] worked out at 6.11 µg/mL (≈ 15.5 µM). In experiment [5], the MIC P. multocida is above 50 µg/mL. For the same compound, the MIC S. aureus Newman in experiment [7] came to 25 µg/mL (≈ 63.4 µM).

In turn, `COc1ccc(-c2c(-c3ccc(OC)cc3O)n[nH]c2C(F)(F)F)cc1` [May-8] showed an MIC M. marinum in experiment [1] of 50 µg/mL (≈ 137 µM). This compound displayed an MIC S. suis in experiment [2] of 12.5 µg/mL (≈ 34.3 µM). Also, the IC50 in experiment [3] worked out at 2.64 µg/mL (≈ 7.25 µM). In experiment [4], the MIC E. coli JW5503 was 3.13 µg/mL (≈ 8.59 µM). Also, the MIC P. multocida in experiment [5] was above 50 µg/mL. Besides, the MIC S. aureus Newman in experiment [7] was 12.5 µg/mL (≈ 34.3 µM).

Turning to `COc1ccc(-c2c(-c3ccc(O)cc3O)n[nH]c2C(F)(F)F)cc1` [May-9, 4-[4-(4-methoxyphenyl)-5-(trifluoromethyl)-1∼{H}-pyrazol-3-yl]resorcinol], the MIC M. marinum in experiment [1] is above 50 µg/mL. Moreover, in experiment [2], the MIC S. suis turned out to be 12.5 µg/mL (≈ 35.7 µM). The IC50 in experiment [3] is around 3.15 µg/mL (≈ 8.99 µM). In experiment [4], this compound yielded an MIC E. coli JW5503 of 3.13 µg/mL (≈ 8.94 µM). Also, the MIC P. multocida in experiment [5] stood at 50 µg/mL (≈ 143 µM). The MIC E. faecium Van A in experiment [6] amounted to 25 µg/mL (≈ 71.4 µM). The same compound came in with an MIC S. aureus Newman in experiment [7] of 12.5 µg/mL (≈ 35.7 µM).

As for `Oc1ccc(-c2[nH]nc(C(F)(F)F)c2-c2ccccc2)c(O)c1` [May-10, 4-[4-phenyl-5-(trifluoromethyl)-1∼{H}-pyrazol-3-yl]resorcinol], the MIC M. marinum in experiment [1] was determined as 50 µg/mL (≈ 156 µM). The compound also gave an MIC S. suis in experiment [2] of 12.5 µg/mL (≈ 39 µM). Moreover, the IC50 in experiment [3] was around 3.61 µg/mL (≈ 11.3 µM). In experiment [5], this compound showed an MIC P. multocida of 25 µg/mL (≈ 78.1 µM). In experiment [6], this compound yielded an MIC E. faecium Van A of 12.5 µg/mL (≈ 39 µM). Further, in experiment [7], the MIC S. aureus Newman was 6.25 µg/mL (≈ 19.5 µM).

In experiment [1], `COc1ccccc1-c1c(-c2ccc(O)cc2O)n[nH]c1C(F)(F)F` [May-13, 4-[4-(2-methoxyphenyl)-5-(trifluoromethyl)-1∼{H}-pyrazol-3-yl]resorcinol] gave an MIC M. marinum above 50 µg/mL. This compound registered an MIC S. suis in experiment [2] of 25 µg/mL (≈ 71.4 µM). For the same compound, the IC50 in experiment [3] stood at 8.06 µg/mL (≈ 23 µM). For the same compound, the MIC P. multocida in experiment [5] is 50 µg/mL (≈ 143 µM). The compound also had an MIC E. faecium Van A in experiment [6] of 50 µg/mL (≈ 143 µM). The compound also gave an MIC S. aureus Newman in experiment [7] of 25 µg/mL (≈ 71.4 µM).
